Publication PMC4779441 (International journal of peptide research and therapeutics, 2015)

System: HCT-116 cells
Experiment: In vitro cells' growth inhibition assay
Details: Homo sapiens, HCT-116, 48 h, read-out: EC50 [µM] HCT-116

EC50: 74.5 ± 3.7 µM
Structure (SMILES): CC(=O)O[C@@]12CO[C@@H]1C[C@H](O)[C@@]1(C)C(=O)[C@H](O)C3=C(C)[C@@H](OC(=O)[C@H](O)[C@@H](NC(=O)OC(C)(C)C)c4ccccc4)C[C@@](O)([C@@H](OC(=O)c4ccccc4)[C@H]21)C3(C)C [DTX, Docetaxel]
